Reference: US11648248B1 (King Abdulaziz University, priority 2022, dated 2023)
In brackets after ≈: the same amount, converted by molar mass. Read-outs that look alike come from different tables or passages of the source. One block for each compound: values may come before it.

What was measured:
Assay in all cases: MIC broth microdilution, initial screening
Type in all cases: cell-based
C. albicans (ATCC 64124) = settings: Candida albicans, read-out: minimum inhibitory concentration (MIC) C. albicans (ATCC 64124)
Procedure: (§1) The minimum inhibitory concentrations (MICs) of the tested compounds and control drugs (linezolid, vancomycin, gentamicin (antibiotics) and fluconazole and 5-fluorocytosine (5-FC) (antifungal drugs)) were determined using the broth microdilution method, according to guidelines outlined by the Clinical and Laboratory Standards Institute (CLSI, Clinical and Laboratory Standards Institute, Methods for antimicrobial susceptibility testing of anaerobic bacteria; approved standard, M11-A8. 8th ed., 2012; CLSI, Clinical and Laboratory Standards Institute. M27-A3 Reference Method for Broth Dilution Antifungal Susceptibility Testing of Yeasts; Approved Standard—Third Edition, Wayne, Pa., 2008) against clinically-relevant bacterial (methicillin-resistant Staphylococcus aureus (MRSA), Escherichia coli, and C. difficile strains) and fungal (Candida albicans) strains. S. aureus and E. coli were grown aerobically overnight on tryptone soy agar plates at 37° C. C. difficile was grown anaerobically on brain heart infusion supplemented agar at 37° C. for 48 hours. C. albicans was grown aerobically overnight on yeast peptone dextrose (YPD) agar plate at 35° C. Afterwards, a bacterial solution equivalent to 0.5 McFarland standard was prepared and diluted in cation-adjusted Mueller-Hinton broth (CAMHB) (for S. aureus and E. coli) to achieve a bacterial concentration of about 5×10^5 CFU/mL. C. difficile was diluted in brain heart infusion supplemented broth, supplemented with yeast extract, hemin and vitamin K to achieve a bacterial concentration of about 5×10^5 CFU/mL. C. albicans was diluted in Roswell Park Memorial Institute (RPMI 1640) medium with glutamine and without bicarbonate (GIBCO by Life Technologies, Green Island, N.Y., USA) which was buffered to pH 7.0 with 0.165 M of [3-(N-morpholino) propanesulfonic acid] (MOPS) (DOT Scientific Inc., Burton, Mich., USA) to achieve a fungal concentration of about 1.5×10^3 CFU/mL. Compounds and control drugs were added in the first row of the 96-well plates and serially diluted with the corresponding media containing bacteria. Plates were then incubated aerobically at 37° C. for 18-20 hours (for S. aureus and E. coli). C. difficile was incubated anaerobically at 37° C. for 48 hours. C. albicans was incubated aerobically at 37° C. for 24 hours.
(§2) The minimum inhibitory concentrations (MICs) of the tested compounds and control drugs; linezolid, vancomycin, gentamicin (antibiotics) and fluconazole and 5-fluorocytosine (5-FC) (antifungal drugs) were determined using the broth microdilution method, according to guidelines outlined by the Clinical and Laboratory Standards Institute (CLSI)^1, 2, 3 against clinically-relevant bacterial (methicillin-resistant Staphylococcus aureus (MRSA), Escherichia coli and Clostridium difficile strains) and fungal (Candida albicans) strain. S. aureus and E. coli were grown aerobically overnight on tryptone soy agar plates at 37° C. C. difficile was grown anaerobically on brain heart infusion supplemented agar at 37° C. for 48 hours. C. albicans was grown aerobically overnight on yeast peptone dextrose (YPD) agar plate at 35° C. Afterwards, a bacterial solution equivalent to 0.5 McFarland standard was prepared and diluted in cation-adjusted Mueller-Hinton broth (CAMHB) (for S. aureus and E. coli) to achieve a bacterial concentration of about 5×10^5 CFU/mL. C. difficile was diluted in brain heart infusion supplemented broth, supplemented with yeast extract, hemin and vitamin K to achieve a bacterial concentration of about 5×10^5 CFU/mL. C. albicans was diluted in Roswell Park Memorial Institute (RPMI 1640) medium with glutamine and without bicarbonate (GIBCO by Life Technologies, Green Island, N.Y., USA) which was buffered to pH 7.0 with 0.165 M of [3-(N-morpholino) propanesulfonic acid]

[1] = test system: Clostridium difficile (ATCC-BAA1870); settings: anaerobic, 48 hours; for MIC: Clostridioides difficile, ATCCBAA1870, 48 h, read-out: minimum inhibitory concentration (MIC) C. difficile (ATCC-BAA1870)
Procedure: as §1, §2

[2] = test system: Escherichia coli BW25113 (wild-type); settings: for MIC: Escherichia coli, E. coli BW25113, 18-20 hours, read-out: minimum inhibitory concentration (MIC) E. coli (Wild-type)
Procedure: as §1, §2

[3] = test system: Escherichia coli JW55031 (TolC mutant); settings: for MIC: Escherichia coli, read-out: minimum inhibitory concentration (MIC) E. coli (TolC mutant), E. coli JW55031, 18-20 hours
Procedure: as §1, §2

[4] = test system: Methicillin-resistant Staphylococcus aureus NRS384 (MRSA USA300)
Procedure: as §1, §2

[5] = read-out: minimum inhibitory concentration (MIC) S. aureus (MRSA USA300), MRSA NRS384 (USA300), broth microdilution, 18-20 hours

Compound: O=C(Nc1cccc(Nc2ccc(=O)[nH]n2)c1)Nc1ccc(Cl)c(C(F)(F)F)c1 [MY50, 1-(4-chloro-3-(trifluoromethyl)phenyl)-3-(3-((6-oxo-1,6-dihydropyridazin-3-yl)amino)phenyl)urea]
MIC (C. albicans (ATCC 64124); ATCC64124, 24 h): > 128 µg/mL | MIC [1]: > 128 µg/mL | MIC [2]: > 128 µg/mL | MIC [3]: 128 µg/mL (≈ 302 µM) | MIC [4, 5]: > 128 µg/mL

Compound: Gentamicin [reference compound]
minimum inhibitory concentration (MIC) E. coli (Wild-type) ([2]; 18-20 hours): 0.5 µg/mL | minimum inhibitory concentration (MIC) E. coli (TolC mutant) ([3]; E. coli JW55031, 18-20 hours): 0.25 µg/mL

Compound: Cc1cc(Cl)ccc1NC(=O)Nc1ccc(-c2ccc(=O)[nH]n2)cc1
MIC (C. albicans (ATCC 64124); ATCC64124, 24 h): > 128 µg/mL | minimum inhibitory concentration (MIC) C. difficile (ATCC-BAA1870) [1]: 64 µg/mL (≈ 180 µM) | MIC [2]: > 128 µg/mL | MIC [3]: 64 µg/mL (≈ 180 µM) | MIC ([4]; MRSA|NRS384|USA300, read-out: minimum inhibitory concentration (MIC) S. aureus (MRSA USA300), MRSA NRS384 (USA300), broth microdilution, 18-20 hours): > 128 µg/mL

Compound: O=C(Nc1cccc(Nc2ccc(=O)[nH]n2)c1)Nc1ccc(Cl)c(Cl)c1 [MY49, 1-(3,4-dichlorophenyl)-3-(3-((6-oxo-1,6-dihydropyridazin-3-yl)amino)phenyl)urea]
MIC (C. albicans (ATCC 64124); ATCC64124, 24 h): > 128 µg/mL | MIC [1]: > 128 µg/mL | MIC [2]: > 128 µg/mL | MIC [3]: > 128 µg/mL | MIC [4, 5]: > 128 µg/mL

MIC (C. albicans (ATCC 64124); ATCC64124, RPMI 1640, 24 hours): 0.25 µg/mL (≈ 1.94 µM)
Compound: Nc1nc(=O)[nH]cc1F [5-Fluorocytosine, 5-fluorocytosine, reference compound]

Compound: Cc1cccc(NC(=O)Nc2ccc(Oc3ccc(=O)[nH]n3)cc2)c1 [MY32, 1-(4-((6-oxo-1,6-dihydropyridazin-3-yl)oxy)phenyl)-3-(m-tolyl)urea]
MIC (C. albicans (ATCC 64124); ATCC64124, 24 h): > 128 µg/mL | MIC [1]: > 128 µg/mL | MIC [2]: > 128 µg/mL | MIC [3]: > 128 µg/mL | MIC [4, 5]: > 128 µg/mL

Compound: COc1ccc(NC(=O)Nc2cccc(-c3ccc(=O)[nH]n3)c2)cc1 [MY33, 1-(4-methoxyphenyl)-3-(3-(6-oxo-1,6-dihydropyridazin-3-yl)phenyl)urea]
MIC (C. albicans (ATCC 64124); ATCC64124, 24 h): > 128 µg/mL | MIC [1]: > 128 µg/mL | MIC [2]: > 128 µg/mL | MIC [3]: > 128 µg/mL | MIC [4, 5]: > 128 µg/mL

Compound: OC(Cn1cncn1)(Cn1cncn1)c1ccc(F)cc1F [Fluconazole, reference compound]
MIC (C. albicans (ATCC 64124); ATCC64124, RPMI 1640, 24 hours): > 128 µg/mL
